The results in this text go back to paper PMC12040169 (PLOS Biology, 2025).

This data set can be described thus: in vitro. Particulars: human, hela cells, % viability.
Take `COCCNc1nccnc1-c1cccc(C(=O)N2CCN(C)CC2)c1` [CBK036864]: the viability – broadly, a read-out of living cells in per cent, often relative to untreated cells – at 28.5 h, 10 µM came out at 99.9%.

Turning to `Cc1ccc(N2CCCn3c2nc2c3c(=O)n(CC(=O)O)c(=O)n2C)cc1` [CBK286740], the viability at 28.5 h, 10 µM came to 90.5%.

As to `Cc1ccc(CN(CCCN(C)C)Cc2cccc(O)c2)o1` [CBK283173], the viability at 28.5 h, 10 µM worked out at 108%.

Turning to `COCCC(=O)N1C[C@@H](c2cccc(F)c2)[C@@]2(CCCC(=O)N2)C1` [CBK283450], the viability at 28.5 h, 10 µM is 88.1%.

With `N=C(N)NCC(=O)N(CCCc1cc(C(F)(F)F)cc(C(F)(F)F)c1)c1ccc2c(c1)OCO2` [CBK000702T], the viability at 28.5 h, 10 µM was 80.1%.

As for `Nc1nc2c([nH]c(=O)n2[C@H]2C[C@@H](O)[C@@H](CO)O2)c(=O)[nH]1` [CBK201269], the viability at 28.5 h, 10 µM stood at 94.7%.

Turning to `Cc1cc(C)n(CC(=O)NCC(c2cccs2)N2CCOCC2)n1` (stereo not shown) [CBK305620], the viability at 28.5 h, 10 µM is 102%.

For `c1ccc(-c2nnc(CSc3nnc(-c4ccncc4)[nH]3)o2)cc1` [CBK269962], the viability at 28.5 h, 10 µM was 94.9%.

On to `COc1ccccc1-c1ncc(OCC(F)(F)F)nc1NC(=O)C1CC1` [CBK145275], for which the viability at 28.5 h, 10 µM stood at 86.4%.

On to `N#CCCn1cc(C(=O)N2CCCCC2)c(-c2cccc(Cl)c2)n1` [CBK306209], for which the viability at 28.5 h, 10 µM is 80%.

Take `COc1ccc2c(ccn2S(=O)(=O)c2ccsc2C(=O)O)c1` [CBK002378]: the viability at 28.5 h, 10 µM was determined as 102%.

With `CC(=O)N[C@H](Cc1c[nH]c2ccccc12)C(=O)N1CC[C@H]2NC(=O)[C@H](Cc3ccccc3)NC(=O)C3(C/C=C/C[C@H]2C1)CCOCC3` [CBK292205], the viability at 28.5 h, 10 µM amounted to 89.9%.

For the compound `c1ccc2sc(SCCN3CCCCC3)nc2c1` [CBK016366], the viability at 28.5 h, 10 µM turned out to be 109%.

With `COc1ccc(-c2ccc3c(c2)C(=O)N2CC[C@H](NC(=O)C4CCCC4)[C@H]2C(=O)N3)cc1` [CBK289330], the viability at 28.5 h, 10 µM turned out to be 108%.

`O=S(=O)(c1ccc(Cl)cc1)N1CCN(S(=O)(=O)N2CCCCC2)CC1` [CBK267075]: the viability at 28.5 h, 10 µM stood at 96.1%.

Turning to `Cc1ccccc1OCc1nn2c(COc3ccccc3)nnc2s1` [CBK267230], the viability at 28.5 h, 10 µM came to 85.4%.

As to `COc1ccc(CC(=O)NCCc2nnc3ccccn23)cc1` [CBK304613], the viability at 28.5 h, 10 µM amounted to 74.7%.

`Cc1ccc(C(=O)C2=C(O)C(=O)N(CCCn3ccnc3)C2c2cccc([N+](=O)[O-])c2)cc1` (stereo not shown) [CBK263319]: the viability at 28.5 h, 10 µM came out at 115%.

With `O=C(COc1ccccc1)N1CCC(c2cc3cnccc3[nH]2)CC1` [CBK283449], the viability at 28.5 h, 10 µM amounted to 97.6%.

On to `COc1cc(/C=N/NC(=O)CSc2n[nH]c(=O)[nH]c2=O)cc(OC)c1O` [CBK263527], for which the viability at 28.5 h, 10 µM amounted to 92.9%.

Turning to `CC(=O)c1ccc(C(=O)Nc2sc3c(c2C#N)CCN(C(C)=O)C3)cc1` [CBK304418], the viability at 28.5 h, 10 µM worked out at 84.8%.

Regarding `CCOC(=O)CC(O)(c1ccc(OC)cc1)c1cc(C)no1` (stereo not shown) [CBK023133], the viability at 28.5 h, 10 µM amounted to 107%.

Consider `CS(=O)(=O)c1ccc2nc(NC(=O)c3cccs3)sc2c1` [CBK287340], for which the viability at 28.5 h, 10 µM turned out to be 92.6%.

Turning to `CCCCSc1nc(N)cc(N2CCC3(CCNC(=O)CC3)CC2)n1` [CBK307001], the viability at 28.5 h, 10 µM was 98.2%.

As for `O=C(CN1C(=O)c2ccc([N+](=O)[O-])cc2C1=O)Nc1ccc(O)cc1C(=O)O` [CBK263456], the viability at 28.5 h, 10 µM came to 95.5%.

In the case of `COc1ccc(Cl)cc1/C=C/C(=O)NCc1ccc(C(=O)O)cc1` [CBK286908], the viability at 28.5 h, 10 µM was found to be 89.3%.

Consider `CN1C(=O)COc2ccccc2CCCC[C@@H]2[C@H]1CCCN2C(=O)c1cc(=O)[nH]c(=O)[nH]1` [CBK292110], for which the viability at 28.5 h, 10 µM was found to be 83.3%.

As to `O=C(NCCNc1ccc(Cl)cc1[N+](=O)[O-])c1ccccc1Br` [CBK263538], the viability at 28.5 h, 10 µM stood at 102%.

`CCOc1cc(C)ccc1S(=O)(=O)n1nnc2ccccc21` [CBK287796]: the viability at 28.5 h, 10 µM amounted to 97.3%.

Turning to `COc1cc(NC(=O)NCCc2cccs2)cc(OC)c1OC` [CBK043347], the viability at 28.5 h, 10 µM stood at 94.6%.

Take `OCCN1CC2(CCN(Cc3ncc[nH]3)CC2)c2ccccc21` [CBK126763]: the viability at 28.5 h, 10 µM was 102%.

For the compound `CCNc1nc(-c2ccc(S(C)(=O)=O)cc2)cn2ccnc12` [CBK066452], the viability at 28.5 h, 10 µM amounted to 87.1%.

In the case of `CN1CCN(c2ccc(-c3cc(NC4CCCCC4)ncn3)cn2)CC1` [CBK090899], the viability at 28.5 h, 10 µM was determined as 96.7%.

As for `Cn1ccnc1C(O)C1CCN(C(=O)NCCc2cccc(F)c2)CC1` (stereo not shown) [CBK304657], the viability at 28.5 h, 10 µM is 80.5%.

`Cc1ccc2[nH]c(SCC(=O)NC3CCCC3)nc2c1` [CBK057983]: the viability at 28.5 h, 10 µM is 90%.

`O=C(O)c1cnc(-c2ccccc2)nc1` [CBK261272]: the viability at 28.5 h, 10 µM worked out at 93.2%.

`O=C(c1ccc(F)cc1)N1CCC(O)(c2ccccn2)CC1` [CBK283669]: the viability at 28.5 h, 10 µM stood at 92.9%.

Take `CCOC(=O)c1csc(C2CCCN2C(=O)CCc2ccccc2O)n1` (stereo not shown) [CBK305448]: the viability at 28.5 h, 10 µM was found to be 109%.

With `O=C(CCS(=O)(=O)c1ccccc1)Nc1cccnc1N1CCNCC1` [CBK028262T], the viability at 28.5 h, 10 µM was found to be 103%.

As to `OCCCN1CCCN(c2ccnc(OCCN3CCOCC3)n2)CC1` [CBK083808], the viability at 28.5 h, 10 µM is 104%.

With `Cc1cccc(C(=O)Nc2ccc3oc(-c4cccnc4)nc3c2)c1` [CBK073161], the viability at 28.5 h, 10 µM was 82.7%.

Turning to `CN1CCN(CCC(=O)N/N=C/c2ccccn2)CC1` [CBK261501], the viability at 28.5 h, 10 µM came to 114%.

As for `CC(C)c1ccc(OCCc2cc(C3CCN(C(=O)CC4CCCC4)C3)n[nH]2)cc1` (stereo not shown) [CBK286129], the viability at 28.5 h, 10 µM worked out at 102%.

On to `Cc1c(C(=O)N2CCNCC2C)nnn1-c1ccc2ncccc2c1` (stereo not shown) [CBK304473], for which the viability at 28.5 h, 10 µM was 94.6%.

For `O=C(O)COc1ccc(NC(=O)C(c2ccccc2)c2ccccc2)cc1` [CBK264250], the viability at 28.5 h, 10 µM was 99.6%.

Consider `COCCOCC(=O)N1CCC2(C/C=C/C[C@H]3COCC[C@H]3NC(=O)CNC2=O)CC1` [CBK292170], for which the viability at 28.5 h, 10 µM turned out to be 105%.

With `CC(C)C(=O)Nc1ccc(-c2csc(N3CCN(C)CC3)n2)cc1` [CBK304317C], the viability at 28.5 h, 10 µM was 93.5%.

As for `Cc1cc(CC(=O)N/N=C/c2ccccc2)[nH]n1` [CBK007500], the viability at 28.5 h, 10 µM is 99.8%.

Regarding `c1cncc(-c2nccnc2NCCCN2CCOCC2)c1` [CBK037286], the viability at 28.5 h, 10 µM came out at 107%.

In the case of `CCCN(C(C)C(=O)N(C)C)S(=O)(=O)c1ccc(Cl)cc1` (stereo not shown) [CBK016123], the viability at 28.5 h, 10 µM worked out at 96.8%.

As for `Cc1cc(=O)oc2cc(OC(C)C(=O)NCC(=O)O)ccc12` (stereo not shown) [CBK286829], the viability at 28.5 h, 10 µM is 106%.

Regarding `O=C(CN1CCN(c2ncccn2)CC1)N1N=CCC1c1ccccc1` (stereo not shown) [CBK270184], the viability at 28.5 h, 10 µM amounted to 89.4%.

Consider `CCOC(=O)c1c(NC(=O)CSc2nnnn2C)sc(C)c1C` [CBK268798], for which the viability at 28.5 h, 10 µM is 103%.

`COC(=O)c1c(NC(=S)Nc2ccc(Br)cn2)sc2c1CCC(C)C2` (stereo not shown) [CBK266962]: the viability at 28.5 h, 10 µM came out at 94.6%.

On to `CC(=O)Nc1nc(OCCN2CCCC2=O)cnc1/C=C\c1ccccc1` [CBK145371], for which the viability at 28.5 h, 10 µM amounted to 84.9%.

In the case of `C/C(=N/Nc1ccc([N+](=O)[O-])cc1[N+](=O)[O-])C1CC1` [CBK260921], the viability at 28.5 h, 10 µM stood at 104%.

As for `CCCC(=O)Nc1ccc(C(=O)N2CCN(C)CC2)cc1` [CBK304337], the viability at 28.5 h, 10 µM came to 100%.

Regarding `Cc1ccc(CNC(=O)OCCN2CCN(C)CC2)o1` [CBK200205], the viability at 28.5 h, 10 µM came out at 112%.

Regarding `Cc1nc(C(Cc2ccsc2)NC(=O)C(C)(C)N)sc1C` (stereo not shown) [CBK284775], the viability at 28.5 h, 10 µM was 93%.

Consider `O=C1CCCC[C@@H]2[C@@H](N1)[C@H](c1ccccc1)CN2Cc1ccnc2ccccc12` [CBK286280], for which the viability at 28.5 h, 10 µM was determined as 102%.

With `O=S(=O)(Nc1cccc2cc[nH]c12)c1ccc(Br)cc1C(F)(F)F` [CBK159519], the viability at 28.5 h, 10 µM turned out to be 88.5%.

Consider `CC(=O)Nc1ccc(S(=O)(=O)NCCSc2ccccn2)cc1` [CBK263576], for which the viability at 28.5 h, 10 µM is 90.1%.

In the case of `COc1ccc(N2CCN(c3cc(-c4cccc([N+](=O)[O-])c4)ncn3)CC2)cc1OC` [CBK091031], the viability at 28.5 h, 10 µM turned out to be 86.4%.

On to `O=[N+]([O-])c1ccc(Cl)cc1CN1CCN(C/C=C/c2ccccc2)CC1` [CBK261568], for which the viability at 28.5 h, 10 µM was found to be 106%.

With `Cc1ccc(S(=O)(=O)N(CC(=O)Nc2ccccc2F)c2cc(Cl)ccc2Cl)cc1` [CBK268647], the viability at 28.5 h, 10 µM was 111%.

Take `O=C(NCc1cccc2ccccc12)c1ccccc1-n1cccc1` [CBK149585]: the viability at 28.5 h, 10 µM is 99.8%.

As for `O=S(=O)(Nc1cccc2cc[nH]c12)c1ccc(F)cc1F` [CBK153586], the viability at 28.5 h, 10 µM came out at 85.3%.

`CN1C[C@H]2N(C)C(=O)c3ccccc3C(=O)[C@@]2(C)C1` [CBK283482]: the viability at 28.5 h, 10 µM is 86.7%.

Take `Cc1cnc2c(C(=O)N3CCCC3c3ccccn3)cnn2c1` (stereo not shown) [CBK304612]: the viability at 28.5 h, 10 µM was 91.8%.

Consider `O=C1Nc2ccc(-c3ccc4c(c3)OCO4)cc2C(=O)N2CCN(C(=O)CO)C[C@H]12` [CBK289593], for which the viability at 28.5 h, 10 µM was determined as 85.6%.

As to `CCC(SC1=NCCS1)C(=O)Nc1ccc(NC(C)=O)cc1` (stereo not shown) [CBK266199], the viability at 28.5 h, 10 µM worked out at 97.4%.

Turning to `CCc1ccc(NC(=O)CNc2cc(C)ccc2OC)cc1` [CBK297553], the viability at 28.5 h, 10 µM worked out at 107%.

As to `O=C(c1cccnc1)N1CCCC2(CCN(C(=O)c3ccoc3)C2)C1` (stereo not shown) [CBK131640], the viability at 28.5 h, 10 µM is 97%.

For the compound `CC(Oc1ccccc1)C(=O)Nc1ccccc1NC(=O)c1ccco1` (stereo not shown) [CBK269636], the viability at 28.5 h, 10 µM turned out to be 88.4%.

Consider `CC(Oc1ccccc1)C(=O)Nc1cccc(-c2nnc(-c3ccccc3)o2)c1` (stereo not shown) [CBK262822], for which the viability at 28.5 h, 10 µM came out at 91.2%.

Consider `Cc1ccc(C)c2c(C)c(C(=O)N3CCC(O)C(C)C3)[nH]c12` (stereo not shown) [CBK282527], for which the viability at 28.5 h, 10 µM is 97.4%.

For the compound `CCCC(=O)Nc1ccc(-c2csc(N3CCCC3=O)n2)cc1` [CBK306088], the viability at 28.5 h, 10 µM stood at 82%.

On to `Cc1ccc2cc(CN(Cc3ccc4c(c3)OCO4)Cc3nnnn3Cc3ccco3)c(=O)[nH]c2c1` [CBK108949], for which the viability at 28.5 h, 10 µM is 93.9%.

Consider `COc1ccc(OC)c(S(=O)(=O)N2CCN(c3ncccn3)CC2)c1` [CBK008662], for which the viability at 28.5 h, 10 µM amounted to 92.7%.
